From paper PMC7663531, “Synthesis, Molecular Docking Screening and Anti-Proliferative Potency Evaluation of Some New Imidazo[2,1-b]Thiazole Linked Thiadiazole Conjugates” (Molecules, 2020) come the findings set out here.

One series deals with HepG2 cells. In words: Anti-proliferative assay in vitro (SRB) on hepatic cancer cell line HepG2. It is filed as cell-based. The settings on record: Homo sapiens, 72 h exposure, tested from 100 to 0.1 µg/mL, Nd: no detectable activity in the used concentrations, DMSO 1%, read-out: HepG2 IC50 ± SD. Here is the method: (§1) The results of anti-proliferative activity were calculated based on the IC50 (inhibitory concentration 50%), the concentration of a tested compound which inhibits 50% of the cells population. IC50 esteems were determined for each examination independently and mean qualities ± SD are introduced in Table 1. The movement of every subordinate at every fixation was tried in three-fold in a solitary test; which was rehashed 3–5 times. The aftereffects of the investigations on against proliferative action of tried mixes are summed up in Table 1
(§2) Cell lines: Hep-G2 (human hepatic disease) and BALB/3T3 (murine fibroblast) are being kept up in the Institute of Cancer, Cairo, Egypt. All malignant growth cell lines were obtained from American Type Culture Collection (Rockville, Maryland, USA) and kept up in the Institute of Cancer. HepG2 cells were refined in Eagle’s minimum essential medium (EMEM) and supplemented with 10% FBS; DMEM and RPMI1640 were choices for that function also. Suction included new culture medium each 2–3 days. HepG2 cell multiplying time was 48 h. BALB/3T3 cell line was refined in DMEM and enhanced with 2 mM L-glutamine, 10% fetal ox-like serum (GE Healthcare, Logan, UT, USA). To entry cells, cell monolayer with 1× PBS were flushed twice and pre-warmed (37 °C) 0.05% Trypsin-EDTA arrangement was added to cover the lower part of the jar; brooded for 5–7 min. As cells withdrew, the trypsin was killed by including 4× volume of complete development medium with 10% FBS and delicately suspended the cells by pipetting. To abstain from clustering, the phones were not upset by shaking the jar while sitting tight for separation. Split cells 1:4 at regular intervals or 1:8 like clockwork. Societies had been brooded at 37 °C in a humidified climate with 5% CO2.
(§3) All compounds were broken up in DMSO (stock arrangement 10 mg/mL) and consequently weakened in culture medium to arrive at the necessary fixations (going from 100 to 0.1 µg/mL).
(§4) 24 h before expansion of the tried exacerbates, the cells were plated in 96-well plates (Sarstedt, Germany) at thicknesses of 1 × 10^4 cells per well. The examination was performed after 72 h introduction to shifting centralizations of the tried mixes. The in vitro cytotoxic impact of all mixes was analyzed utilizing the SRB measure.
(§5) The subtleties of this strategy were depicted by Skehan et al.. The cells were joined to the lower part of plastic wells by fixing them with cold half TCA (trichloroacetic corrosive, Sigma-Aldrich Chemie GmbH, Steinheim, Germany) on the head of the way of life medium in each well. The plates were hatched at 4 °C for 1 h and afterward washed multiple times with faucet water. The cell material fixed with TCA was recolored with 0.4% sulphorhodamine B (SRB, Sigma-Aldrich Chemie GmbH, Steinheim, Germany) disintegrated in 1% acidic corrosive for 30 min. Unbound color was taken out by flushing (multiple times) in 1% acidic corrosive. The protein-bound color was removed with 10 mMunbufferedTris base for assurance of the optical thickness (λ = 540 nm) in Synergy H4 multi-mode microplate peruser (BioTek Instruments, Winooski, VT, USA).

In series [1] the test system is BALB/3T3 (murine fibroblast). In words: Anti-proliferative assay in vitro (SRB) on normal cell line BALB/3T3. It is filed as cell-based. The settings on record: Mus musculus, 72 h exposure, tested from 100 to 0.1 µg/mL, Nd: no detectable activity in the used concentrations, DMSO 1%, read-out: BALAB/3T3 IC50 ± SD. The procedure:
as §1, §2, §3, §4, §5

Molecules are shown by their SMILES. A value given as a limit tells only on which side of the number the result lay.

Broadly, the melting point is the temperature, or range, at which the solid turns liquid.

`CSC(=S)N/N=C(\C)c1sc2nc(-c3ccc(C)cc3)cn2c1C` [Compound 3, methyl 2-(1-(3-methyl-6-(p-tolyl)imidazo[2,1-b]thiazol-2-yl)ethylidene) hydrazinecarbodithioate]: the melting point fell in the range of 182 to 184 °C.

For the molecule `CC(=O)c1nn(-c2ccc(C)cc2)c(=NN=C(C)c2sc3nc(-c4ccc(C)cc4)cn3c2C)s1` [Compound 6a, 1-(5-((1-(3-Methyl-6-(p-tolyl)imidazo[2,1-b]thiazol-2-yl)ethylidene)hydrazono)-4-(p-tolyl)-4,5-dihydro-1,3,4-thiadiazol-2-yl)ethanone], the melting point lay in the range of 220 to 222 °C. The IC50 in the series on HepG2 cells was 63.3 ± 12.8 µg/mL. Also, in series [1], the IC50 was 25.1 ± 12 µg/mL.

Take `COc1ccc(-n2nc(C(C)=O)sc2=NN=C(C)c2sc3nc(-c4ccc(C)cc4)cn3c2C)cc1` [Compound 6b, 1-(4-(4-Methoxyphenyl)-5-((1-(3-methyl-6-(p-tolyl)imidazo[2,1-b]thiazol-2-yl)ethylidene) hydrazono)-4,5-dihydro-1,3,4-thiadiazol-2-yl)ethanone]: the melting point was 216 to 218 °C. In the series on HepG2 cells, the IC50 was determined as 59.2 ± 9.27 µg/mL.

In turn, `CC(=O)c1nn(-c2ccc(Cl)cc2)c(=NN=C(C)c2sc3nc(-c4ccc(C)cc4)cn3c2C)s1` [Compound 6c, 1-(4-(4-Chlorophenyl)-5-((1-(3-methyl-6-(p-tolyl)imidazo[2,1-b]thiazol-2-yl)ethylidene) hydrazono)-4,5-dihydro-1,3,4-thiadiazol-2-yl)ethanone] displayed a melting point of 192 to 194 °C.

`CCOC(=O)c1nn(-c2ccccc2)c(=NN=C(C)c2sc3nc(-c4ccc(C)cc4)cn3c2C)s1` [Compound 6d, Ethyl 5-((1-(3-methyl-6-(p-tolyl)imidazo[2,1-b]thiazol-2-yl)ethylidene)hydrazono)-4-phenyl-4,5-dihydro-1,3,4-thiadiazole-2-carboxylate] returned a melting point of 235 to 237 °C. In the series on HepG2 cells, the IC50 stood at 41.1 ± 8.32 µg/mL.

The molecule `CCOC(=O)c1nn(-c2ccc(C)cc2)c(=NN=C(C)c2sc3nc(-c4ccc(C)cc4)cn3c2C)s1` [Compound 6e, Ethyl 5-((1-(3-methyl-6-(p-tolyl)imidazo[2,1-b]thiazol-2-yl)ethylidene)hydrazono)-4-(p-tolyl)-4,5-dihydro-1,3,4-thiadiazole-2-carboxylate] had a melting point of 117 to 119 °C.

`CCOC(=O)c1nn(-c2ccc(Br)cc2)c(=NN=C(C)c2sc3nc(-c4ccc(C)cc4)cn3c2C)s1` [Compound 6f, Ethyl 4-(4-bromophenyl)-5-((1-(3-methyl-6-(p-tolyl)imidazo[2,1-b]thiazol-2-yl)ethylidene) hydrazono)-4,5-dihydro-1,3,4-thiadiazole-2-carboxylate] came in with a melting point of 156 to 158 °C. The IC50 in the series with HepG2 cells came to 57.5 ± 6.61 µg/mL.

The molecule `CC(=NN=c1sc(C(=O)Nc2ccccc2)nn1-c1ccccc1)c1sc2nc(-c3ccc(C)cc3)cn2c1C` [Compound 6g, 5-((1-(3-Methyl-6-(p-tolyl)imidazo[2,1-b]thiazol-2-yl)ethylidene)hydrazono)-N,4-diphenyl-4,5-dihydro-1,3,4-thiadiazole-2-carboxamide] yielded a melting point of 209 to 211 °C. In addition, the IC50 in the series with HepG2 cells stood at 33.2 ± 8.25 µg/mL. The IC50 in series [1] was determined as 76.7 ± 4.14 µg/mL.

As to `CC(=NN=c1sc(C(=O)Nc2ccccc2)nn1-c1ccc([N+](=O)[O-])cc1)c1sc2nc(-c3ccc(C)cc3)cn2c1C` [Compound 6h, 5-((1-(3-Methyl-6-(p-tolyl)imidazo[2,1-b]thiazol-2-yl)ethylidene)hydrazono)-4-(4-nitrophenyl)-N-phenyl-4,5-dihydro-1,3,4-thiadiazole-2-carboxamide], the melting point was in the range of 241 to 243 °C.

Turning to `CC(=NN=c1sc(-c2ccccc2)nn1-c1ccccc1)c1sc2nc(-c3ccc(C)cc3)cn2c1C` [Compound 6i, 2-(1-((3,5-Diphenyl-1,3,4-thiadiazol-2(3H)-ylidene)hydrazono)ethyl)-3-methyl-6-(p-tolyl) imidazo[2,1-b]thiazole], the melting point is 273 to 275 °C.

`CC(=NN=c1sc(-c2ccccc2)nn1-c1cccc(-n2nc(-c3ccccc3)sc2=NN=C(C)c2sc3nc(-c4ccc(C)cc4)cn3c2C)c1)c1sc2nc(-c3ccc(C)cc3)cn2c1C` [Compound 10, 1,3-Bis(2-((1-(3-methyl-6-(p-tolyl)imidazo[2,1-b]thiazol-2-yl)ethylidene)hydrazono)-5-phenyl-1,3,4-thiadiazol-3(2H)-yl)benzene] had a melting point of more than 300 °C. Moreover, in the series on HepG2 cells, the IC50 was 23.5 ± 4.48 µg/mL. Besides, in series [1], the IC50 came to 26.2 ± 3.21 µg/mL.

The molecule `CC(=O)c1nn(-c2cccc(-n3nc(C(C)=O)s/c3=N\N=C(/C)c3sc4nc(-c5ccc(C)cc5)cn4c3C)c2)/c(=N/N=C(\C)c2sc3nc(-c4ccc(C)cc4)cn3c2C)s1` [Compound 11, 1,1’-(4,4’-(1,3-Phenylene)bis(5-((1-(3-methyl-6-(p-tolyl)imidazo[2,1-b]thiazol-2-yl)ethylidene)hydrazono)-4,5-dihydro-1,3,4-thiadiazole-4,2-diyl))diethanone] had a melting point of 292 to 294 °C.

Turning to `CC(=O)c1nn(-c2ccc(S(=O)(=O)c3ccc(-n4nc(C(C)=O)s/c4=N\N=C(/C)c4sc5nc(-c6ccc(C)cc6)cn5c4C)cc3)cc2)/c(=N/N=C(\C)c2sc3nc(-c4ccc(C)cc4)cn3c2C)s1` [Compound 12, 1,1’-(4,4’-(Sulfonylbis(4,1-phenylene))bis(5-((1-(3-methyl-6-(p-tolyl)imidazo[2,1-b]thiazol-2-yl)ethylidene)hydrazono)-4,5-dihydro-1,3,4-thiadiazole-4,2-diyl))diethanone], the melting point is more than 300 °C. Further, the IC50 in the series with HepG2 cells is 12.7 ± 1.36 µg/mL. Besides, the IC50 in series [1] amounted to 8.34 ± 1.81 µg/mL.

With `COc1cccc2c1C(=O)c1c(O)c3c(c(O)c1C2=O)C[C@@](O)(C(=O)CO)C[C@@H]3O[C@H]1C[C@H](N)[C@H](O)[C@H](C)O1` [Doxorubicin, reference compound], the IC50 in the series with HepG2 cells was determined as 3.56 ± 0.46 µg/mL; in series [1], 3.21 ± 0.32 µg/mL.
